Data published in ChEMBL document CHEMBL4422633, “Antioxidant-Inspired Drug Discovery: Antitumor Metabolite Is Formed in Situ from a Hydroxycinnamic Acid Derivative upon Free-Radical Scavenging” (J Med Chem, 2019).
Active and inactive are the calls of the source. The rule behind the calls is not given here.

How the values were obtained:
[1] = test system: HaCaT; experiment: Induction of DNA damage response in human HaCaT cells assessed as increase in H2AX expression at 10 uM after 24 hrs by alexa fluor 488-staining based flow cytometry; type: cell-based
[2] = test system: NCI-H661; experiment: Induction of apoptosis in human NCI-H661 cells assessed as early apoptotic cells at 10 uM after 24 hrs by Annexin V/propidium iodide-staining based flow cytometry (reference value: 0.31 +/- 0.01%); type: functional
[3] = Cytotoxicity against human NCI-H460/R cells transfected with MDR assessed as reduction in cell viability after 72 hrs by MTT assay; type: functional, cell-based; conditions: NCI-H460, 72 h
[4] = Induction of apoptosis in human NCI-H460/R cells transfected with MDR assessed as early apoptotic cells at 10 uM after 24 hrs by Annexin V/propidium iodide-staining based flow cytometry (reference value: 0.22 +/- 0.01%); type: functional
[5] = test system: A549; experiment: Induction of apoptosis in human A549 cells assessed as early apoptotic cells at 10 uM after 24 hrs by Annexin V/propidium iodide-staining based flow cytometry (reference value: 0.48 +/- 0.01%); type: functional
[6] = Induction of apoptosis in human NCI-H460/R cells transfected with MDR assessed as viable cells at 10 uM after 24 hrs by Annexin V/propidium iodide-staining based flow cytometry (reference value: 95.76 +/- 2.87%); type: functional; conditions: NCI-H460, 24 h, read-out: Activity
[7] = test system: HaCaT; experiment: Cytotoxicity against human HaCaT cells assessed as reduction in cell viability after 72 hrs by MTT assay; type: cell-based
[8] = test system: NCI-H460; experiment: Induction of DNA damage response in human NCI-H460 cells transfected with MDR assessed as increase in H2AX expression at 10 uM after 24 hrs by alexa fluor 488-staining based flow cytometry; type: functional, cell-based
[9] = test system: NCI-H661; experiment: Cytotoxicity against human NCI-H661 cells assessed as reduction in cell viability after 72 hrs by MTT assay; type: functional, cell-based; conditions: NCI-H661, 72 h
[10] = Induction of apoptosis in human NCI-H460/R cells transfected with MDR assessed as necrotic cells at 10 uM after 24 hrs by Annexin V/propidium iodide-staining based flow cytometry (reference value: 3.17 +/- 0.13%); type: functional
[11] = test system: NCI-H460; experiment: Induction of apoptosis in human NCI-H460 cells assessed as viable cells at 10 uM after 24 hrs by Annexin V/propidium iodide-staining based flow cytometry (reference value: 96.49 +/- 0.96%); type: functional; conditions: NCI-H460, 24 h, read-out: Activity
[12] = test system: NCI-H661; experiment: Induction of DNA damage response in human NCI-H661 cells assessed as increase in H2AX expression at 10 uM after 24 hrs by alexa fluor 488-staining based flow cytometry; type: functional, cell-based
[13] = test system: A549; experiment: Cytotoxicity against human A549 cells assessed as reduction in cell viability after 72 hrs by MTT assay; type: functional, cell-based; conditions: A549, 72 h
[14] = test system: HaCaT; experiment: Induction of apoptosis in human HaCaT cells assessed as late apoptotic cells at 10 uM after 24 hrs by Annexin V/propidium iodide-staining based flow cytometry (reference value: 2.26 +/- 0.09%); type: cell-based
[15] = test system: NCI-H460; experiment: Cytotoxicity against human NCI-H460 cells assessed as reduction in cell viability after 72 hrs by MTT assay; type: functional, cell-based; conditions: NCI-H460, 72 h

For COC(=O)/C=C/C1(O)C=CC(=O)C=C1, the Activity [1] was “Non-Toxic”, the Activity [2] was 0.18% and the IC50 [3] was 2060 nM. For the same compound, the Activity [4] was 0.12%, the Activity [5] was 0.72% and the viability at 10 µM [6] was 90%. For the same compound, the IC50 [7] was 4.05 µM, the Activity [8] was “Active” and the IC50 [9] was 1440 nM. For the same compound, the Activity [10] was 7.51%, the viability at 10 µM [11] was 89.1% and the Activity [12] was “Active”. It also gave an IC50 [13] of 4.32 µM, an Activity [14] of 2.85% and an IC50 [15] of 1850 nM.
